Measurements taken from BindingDB's records for doi:10.1021/jm00095a009 (Dupont Pharmaceuticals, 1992).

Molecular target: Phospholipase A2 (Crotalus adamanteus)
Test: Inhibitory activity against phospholipase A2 of Croatalus adamanteus

IC50, > 1 mM:
Cc1ccc(C(O)(Cn2ccnc2)c2ccc(-c3ccncc3)cc2)cc1 (stereo not drawn)
Oc1c(Cc2ccccc2)ccc2ccccc12
OC(Cn1ccnc1)(c1ccc(F)cc1)c1ccc(-c2ccncc2)cc1 (stereo not drawn)
